Data published in patent US20020164574A1 (priority 2001, published 2002).
“Also recorded” adds a separate entry of the source.

Tests used:
S. cerevisiae = experiment: YT MicroPlate carbon utilization test with fungicide treatment; format: cell-based; details: sub-inhibitory concentration of fungicide; 48 hours incubation; YT MicroPlate (Biolog); FIG. 2
Protocol: The YT microplate test panel (Biolog, Inc.) is designed as a tool for identifying a broad range of yeasts by their carbon utilization patterns. Initial tests were performed with S. cerevisiae in these plates with and without the addition of various fungicides. Very simply, yeast cells are prepared as a water suspension as per the YT microplate instructions. Prior to loading the plates with cells, a fungicide or solvent control is added to the water suspension. The cells are immediately loaded onto a plate. The plates were incubated at 26° C. as per instructions, and OD490 and OD750 readings were obtained at various time points during incubation. The results of fungicide treated samples and controls are compared. Differences in well growth that is altered relative to the control is recorded and is presumed to relate to the mode-of-action of the chemical.
A test in the YT microplate was set up using the sub-inhibitory concentration of three fungicides for which a putative MOA is known. Two fungicides, benomyl and fenpropimorph are predicted to have no effect on carbon utilization, but the third, fenpiclonil, is predicted to affect glucose uptake and utilization. The experiments were performed as described.

[1] = test system: M. grisea and S. cerevisiae; format: cell-based; details: OD600; rich liquid media; two fold dilution series; species not given

SMILES	utilization of carbon sources, fungicide treatment compared to controls (S. cerevisiae)	growth inhibition by spectrophotometric analysis [1]
CCCCNC(=O)n1c(NC(=O)OC)nc2ccccc21 [benomyl]	did not result in any significant differences from the controls	
N#Cc1c[nH]cc1-c1cccc(Cl)c1Cl [fenpiclonil]	decreased utilization of glucose, raffinose and sucrose; also recorded: significant changes in the utilization of glucose, raffinose, and sucrose	
CC(Cc1ccc(C(C)(C)C)cc1)CN1C[C@@H](C)O[C@@H](C)C1 (some centres unmarked) [fenpropimorph]	did not result in any significant differences from the controls	
O=C1CCc2cccc3c2N1CC3 [pyroquilon]		no growth inhibition
Cc1cccc2sc3nncn3c12 [tricyclazole]		no growth inhibition
